Results published in US8134015B2, “Compound inhibiting in vivo phosphorous transport and medicine containing the same” (Kyowa Hakko Kirin Co., Ltd., priority 2003, dated 2012).
pIC50: −log10 of the molar value.

Biological target: T1, rat NaPi-2b (Rattus norvegicus, UniProt Q9JJ09)
T1 construct: expressed in transfected cells; host or cells: Xenopus oocytes injected with cRNA
T1 sequence (Q9JJ09 1-695): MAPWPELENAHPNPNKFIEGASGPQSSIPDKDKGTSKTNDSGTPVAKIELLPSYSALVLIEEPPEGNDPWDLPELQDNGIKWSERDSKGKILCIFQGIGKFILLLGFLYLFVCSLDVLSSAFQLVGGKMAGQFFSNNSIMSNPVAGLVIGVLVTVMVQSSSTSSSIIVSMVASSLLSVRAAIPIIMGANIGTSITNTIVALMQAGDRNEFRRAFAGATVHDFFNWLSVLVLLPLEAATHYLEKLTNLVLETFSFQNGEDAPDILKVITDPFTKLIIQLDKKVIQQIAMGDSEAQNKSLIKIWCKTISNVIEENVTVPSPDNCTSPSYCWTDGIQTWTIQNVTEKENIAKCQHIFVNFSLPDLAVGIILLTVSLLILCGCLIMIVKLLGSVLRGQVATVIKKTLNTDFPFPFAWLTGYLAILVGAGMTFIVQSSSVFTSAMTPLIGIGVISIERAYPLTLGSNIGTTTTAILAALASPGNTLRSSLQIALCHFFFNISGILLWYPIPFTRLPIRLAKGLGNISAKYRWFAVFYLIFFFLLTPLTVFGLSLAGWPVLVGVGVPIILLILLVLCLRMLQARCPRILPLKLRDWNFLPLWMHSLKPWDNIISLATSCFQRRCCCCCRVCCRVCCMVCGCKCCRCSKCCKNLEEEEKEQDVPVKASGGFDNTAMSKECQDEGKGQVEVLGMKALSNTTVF
Assay: Sodium-dependent phosphate uptake of Xenopus oocytes which expressed NaPi-2b (32P)
Type: cell-based
Conditions: for pIC50: Xenopus oocytes expressing rat NaPi-2b, 32P radioactive phosphorus, read-out: IC50 (phosphate uptake inhibitory activity); for inhibition at 300 µM: phosphate uptake, oocytes expressing rat NaPi-2b, determined from inhibition curve
In short: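 Read-out is 32P phosphate uptake into Xenopus oocytes expressing rat intestinal NaPi-2b (cRNA injection, 2-day culture). Inhibition at 300 μM and 100 μM was derived from a single inhibition curve and given as percent.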

pIC50 | inhibition at 300 µM | Structure (SMILES)
5.51 | – | O=C(Nc1ccc(Br)cc1C(=O)N/N=C/c1ccc(Cl)c(C(F)(F)F)c1)c1cccs1 [Compound 162, Thiophene-2-carboxylic acid [4-bromo-2-(4-chloro-3-trifluoromethyl-benzylidene-hydrazinocarbonyl)-phenyl]-amide]
4.65 | – | CC(O)CN(Cc1ccc(C(=O)Nc2ccc(Br)cc2C(=O)N/N=C/c2ccc(Cl)c(C(F)(F)F)c2)cc1)CC(C)O (stereo not drawn) [Compound 721, 4-{[Bis-(2-hydroxy-propyl)-amino]-methyl}-N-[4-bromo-2-(4-chloro-3-trifluoromethyl-benzylidene-hydrazinocarbonyl)-phenyl]-benzamide]
5.97 | – | O=C(Nc1ccc(Br)cc1C(=O)N/N=C/c1cccc(Cl)c1)c1ccc(F)cc1 [Compound 107, N-[4-Bromo-2-(3-chloro-benzylidene-hydrazinocarbonyl)-phenyl]-4-fluoro-benzamide]
5.25 | – | COc1ccc(/C=N/NC(=O)c2ccccc2NC(=O)c2ccc(F)cc2)cc1Br [Compound 102, N-[2-(3-Bromo-4-methoxy-benzylidene-hydrazinocarbonyl)-phenyl]-4-fluoro-benzamide]
5.28 | – | COc1ccc(/C=N/NC(=O)c2c(NC(=O)c3cccc(CN(CC(C)O)CC(C)O)c3)sc3c2CCC3)cc1 (stereo not drawn) [Compound 809, 3-{[Bis-(2-hydroxy-propyl)-amino]-methyl}-N-[3-(4-methoxy-benzylidene-hydrazinocarbonyl)-5,6-dihydro-4H-cyclopenta[b]thiophen-2-yl]-benzamide]
> 6.00 | – | O=C(Nc1ccc(N2CCSCC2)cc1C(=O)N/N=C/c1ccc(Cl)c(C(F)(F)F)c1)c1cccc(CSCCO)c1 [Compound 927, N-[2-(4-Chloro-3-trifluoromethyl-benzylidene-hydrazinocarbonyl)-4-thiomorpholin-4-yl-phenyl]-3-(2-hydroxy-ethylsulfanylmethyl)-benzamide]
> 5.52 | – | CCN(CCO)Cc1cccc(C(=O)Nc2ccc(Cl)cc2C(=O)N/N=C/c2ccc(C)cc2)c1 [Compound 425, N-[4-Chloro-2-(4-methyl-benzylidene-hydrazinocarbonyl)-phenyl]-3-{[ethyl-(2-hydroxy-ethyl)-amino]-methyl}-benzamide]
5.21 | – | Cc1csc(NC(=O)c2cccc(CN(CC(C)O)CC(C)O)c2)c1C(=O)N/N=C/c1cccc(F)c1 (stereo not drawn) [Compound 590, 3-{[Bis-(2-hydroxy-propyl)-amino]-methyl}-N-[3-(3-fluoro-benzylidene-hydrazinocarbonyl)-4-methyl-thiophen-2-yl]-benzamide]
5.23 | – | CCN(CCO)Cc1cccc(C(=O)Nc2ccc(Cl)cc2C(=O)N/N=C/c2ccc(OC)cc2)c1 [Compound 429, N-[4-Chloro-2-(4-methoxy-benzylidene-hydrazinocarbonyl)-phenyl]-3-{[ethyl-(2-hydroxy-ethyl)-amino]-methyl}-benzamide]
> 5.52 | – | COc1ccc(C(=O)Nc2ccc(I)cc2C(=O)N/N=C/c2cccc(C)c2)cc1OC [Compound 206, N-[4-Iodo-2-(3-methyl-benzylidene-hydrazinocarbonyl)-phenyl]-3,4-dimethoxy-benzamide]
5.39 | – | COc1ccc(C(=O)Nc2ccccc2C(=O)N/N=C/c2cc(C)c(O)c(C)c2)cc1OC [Compound 36, N-[2-(4-Hydroxy-3,5-dimethyl-benzylidene-hydrazinocarbonyl)-phenyl]-3,4-dimethoxy-benzamide]
5.91 | – | COc1ccc(C(=O)Nc2scc(C)c2C(=O)N/N=C/c2ccc(C)c(C)c2)cc1OC [Compound 521, N-[3-(3,4-Dimethyl-benzylidene-hydrazinocarbonyl)-4-methyl-thiophen-2-yl]-3,4-dimethoxy-benzamide]
> 6.00 | – | CCN(CC)CCN(C)Cc1cccc(C(=O)Nc2ccc(OCC3CCCCC3)cc2C(=O)N/N=C/c2ccc(Cl)c(C(F)(F)F)c2)c1 [Compound 1049, N-[2-(4-Chloro-3-trifluoromethyl-benzylidene-hydrazinocarbonyl)-4-cyclohexylmethoxy-phenyl]-3-{[(2-diethylamino-ethyl)-methyl-amino]-methyl}-benzamide]
5.67 | – | COc1ccc(C(=O)Nc2cc(Cl)ccc2C(=O)N/N=C/c2ccc(C)cc2)cc1OC [Compound 74, N-[5-Chloro-2-(4-methyl-benzylidene-hydrazinocarbonyl)-phenyl]-3,4-dimethoxy-benzamide]
– | 68.5% | CCN(CC)CC(O)COc1ccc(NC(=O)c2cccc(CN(CC(C)O)CC(C)O)c2)c(C(=O)N/N=C/c2ccc(C)c(C)c2)c1 (stereo not drawn) [Compound 951, 3-{[Bis-(2-hydroxy-propyl)-amino]-methyl}-N-[4-(3-diethylamino-2-hydroxy-propoxy)-2-(3,4-dimethyl-benzylidene-hydrazinocarbonyl)-phenyl]-benzamide]
– | 41.2% | Cc1csc(C(=O)N/N=C/c2ccc(Cl)c(C(F)(F)F)c2)c1NC(=O)c1cccc(CN(CC(C)O)CC(C)O)c1 (stereo not drawn) [Compound 707, 3-{[Bis-(2-hydroxy-propyl)-amino]-methyl}-N-[2-(4-chloro-3-trifluoromethyl-benzylidene-hydrazinocarbonyl)-4-methyl-thiophen-3-yl]-benzamide]
5.05 | – | O=C(Nc1ccc(Cl)cc1C(=O)N/N=C/c1cccc(OCCO)c1)c1ccncc1 [Compound 351, N-{4-Chloro-2-[3-(2-hydroxy-ethoxy)-benzylidene-hydrazinocarbonyl]-phenyl}-isonicotinamide]
> 5.52 | – | COc1ccc(C(=O)Nc2ccc(I)cc2C(=O)N/N=C/c2cccc(F)c2)cc1OC [Compound 204, N-[2-(3-Fluoro-benzylidene-hydrazinocarbonyl)-4-iodo-phenyl]-3,4-dimethoxy-benzamide]
5.60 | – | COc1ccc(/C=N/NC(=O)c2cc(Cl)ccc2NC(=O)c2cccc(CN(CCO)CCO)c2)cc1 [Compound 409, 3-{[Bis-(2-hydroxy-ethyl)-amino]-methyl}-N-[4-chloro-2-(4-methoxy-benzylidene-hydrazinocarbonyl)-phenyl]-benzamide]
– | 47.7% | COc1ccc(/C=N/NC(=O)c2ccsc2NC(=O)c2cccc(CN(CC(C)O)CC(C)O)c2)cc1 (stereo not drawn) [Compound 780, 3-{[Bis-(2-hydroxy-propyl)-amino]-methyl}-N-[3-(4-methoxy-benzylidene-hydrazinocarbonyl)-thiophen-2-yl]-benzamide]
6.05 | – | COc1ccc(C(=O)Nc2ccc(Cl)cc2C(=O)N/N=C/c2ccc(F)cc2)cc1OC [Compound 66, N-[4-Chloro-2-(4-fluoro-benzylidene-hydrazinocarbonyl)-phenyl]-3,4-dimethoxy-benzamide]
> 6.00 | – | Cc1ccc(/C=N/NC(=O)c2cc(N3CCC(C)CC3)ccc2NC(=O)c2cccc(CSCCO)c2)cc1C [Compound 1069, N-[2-(3,4-Dimethyl-benzylidene-hydrazinocarbonyl)-4-(4-methyl-piperidin-1-yl)-phenyl]-3-(2-hydroxy-ethylsulfanylmethyl)-benzamide]
4.89 | – | COc1ccccc1/C=C/C=N/NC(=O)c1cc(Br)ccc1NC(=O)c1cccnc1 [Compound 352, N-{4-Bromo-2-[3-(2-methoxy-phenyl)-allylidene-hydrazinocarbonyl]-phenyl}-nicotinamide]
4.94 | – | COc1ccc(/C=N/NC(=O)c2cc(Br)ccc2NC(=O)c2ccc(OC)c(OC)c2)cc1OC [Compound 127, N-[4-Bromo-2-(3,4-dimethoxy-benzylidene-hydrazinocarbonyl)-phenyl]-3,4-dimethoxy-benzamide]
